Experimental data from ChEMBL document CHEMBL4308885, “The development of myeloperoxidase inhibitors” (Bioorg Med Chem Lett, 2019).

Experiments:
Myeloperoxidase [1] = biological target: T1, Myeloperoxidase (Homo sapiens, UniProt P05164); experiment: Inhibition of MPO (unknown origin)
T1 sequence (P05164 whole entry): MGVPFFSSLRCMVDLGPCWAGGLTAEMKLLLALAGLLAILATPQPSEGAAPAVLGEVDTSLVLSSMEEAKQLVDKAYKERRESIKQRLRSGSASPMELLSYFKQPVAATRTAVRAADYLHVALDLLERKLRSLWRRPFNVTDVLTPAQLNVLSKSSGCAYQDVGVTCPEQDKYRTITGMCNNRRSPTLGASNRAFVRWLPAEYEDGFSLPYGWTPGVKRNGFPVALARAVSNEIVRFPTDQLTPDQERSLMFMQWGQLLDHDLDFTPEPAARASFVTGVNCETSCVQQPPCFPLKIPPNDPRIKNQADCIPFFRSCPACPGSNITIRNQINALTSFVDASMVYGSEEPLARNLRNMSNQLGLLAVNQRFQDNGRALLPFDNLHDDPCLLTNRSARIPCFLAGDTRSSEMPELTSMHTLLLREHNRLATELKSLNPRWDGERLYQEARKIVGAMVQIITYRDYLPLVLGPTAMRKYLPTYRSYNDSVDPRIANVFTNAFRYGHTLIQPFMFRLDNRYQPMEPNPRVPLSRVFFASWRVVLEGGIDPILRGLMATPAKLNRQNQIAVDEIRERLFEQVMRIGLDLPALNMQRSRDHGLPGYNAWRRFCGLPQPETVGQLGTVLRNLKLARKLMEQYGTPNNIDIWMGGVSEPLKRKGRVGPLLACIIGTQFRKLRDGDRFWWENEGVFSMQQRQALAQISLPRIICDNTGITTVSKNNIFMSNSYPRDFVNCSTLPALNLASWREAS

Myeloperoxidase [2] = biological target: T1, Myeloperoxidase; experiment: Inhibition of MPO (unknown origin) using H2O2 as substrate
Myeloperoxidase [3] = biological target: T1, Myeloperoxidase; experiment: Inhibition of MPO in human neutrophils using H2O2 as substrate measured after 5 mins
[4] = biological target: T2, Myeloperoxidase (Homo sapiens) (UniProt P05164); experiment: Inhibition of MPO in human neutrophils assessed as reduction in PMA-stimulated HOCl production at 1 uM relative to control
T2 sequence (whole entry): T1 sequence (P05164 whole entry)

[5] = biological target: T2, Myeloperoxidase (Homo sapiens); experiment: Inhibition of MPO in human neutrophils at 10'4 M using H2O2 as substrate measured for 30 secs in presence of o-dianisidine hydrochloride by spectrophotometric method relative to control

`CC(C)OCCn1c(=S)[nH]c(=O)c2[nH]ccc21` showed an IC50 (Myeloperoxidase [1]) of 630 nM.

`N[C@@H](Cc1c[nH]c2ccccc12)C(=O)O` [TRYPTOPHAN] showed an IC50 (Myeloperoxidase [2]) of 2250 nM.

`COc1ccc2[nH]cc(CCNC(C)=O)c2c1` [MELATONIN] gave an IC50 (Myeloperoxidase [2]) of 3000 nM.

`CC(=O)Oc1ccccc1C(=O)O` [ASPIRIN] gave an IC50 (Myeloperoxidase [1]) of 200000 nM.

For `NNC(=O)c1ccc(O)cc1`, the IC50 (Myeloperoxidase [3]) was 2000 nM.

Work on `Nc1ccc(S(=O)(=O)c2ccc(N)cc2)cc1` [DAPSONE] yielded an IC50 (Myeloperoxidase [1]) of 420 nM.

Work on `O=c1[nH]c(=S)n(C[C@H]2CCCO2)c2nc[nH]c12` yielded an inhibition [4] of 90%.

`O=c1c(O)c(-c2ccc(O)c(O)c2)oc2cc(O)cc(O)c12` gave an inhibition [5] of 100%.
